Test results published in PMC13427755 (Nature Communications, 2026).
Read-outs that look alike come from different tables or passages of the source. Where a SMILES comes first, the peptide text is derived from it.

Assays:
Type in all cases: in vivo, human
[1] = tested on: phosphorylated (p) AKT over total AKT; test: AKT/pAKT in PBMCs, MSD-ECL assay
Protocol: Blood samples for biomarker assessments in PBMCs and platelet-rich plasma were collected prior to the initial dose and on day 14 following the last dose. Following optimization for detection of analytes in IPF matrices, meso-scale discovery electrochemiluminescence (MSD-ECL) assays were performed at BioAgylitix for SP-D (#K1519XR-2, MSD) in plasma and AKT/pAKT (#K15100D-1, MSD) in PBMCs according to manufacturer’s instructions.
(§1) Descriptive statistics are reported as medians with interquartile ranges (IQR). The Hodges-Lehmann estimator was used for the median difference between groups (treatment minus placebo), with approximate 90% confidence intervals (asymmetric, exact level varied slightly with small n). Cliff’s delta was calculated as effect size using the formula δ = (2U / (n1 × n2)) − 1, with thresholds: |δ | <0.3 small effect, 0.3–0.5 medium effect, >0.5 large effect. […] No adjustment for multiplicity was performed, as these were pre-specified, hypothesis-driven exploratory analyses. All biomarker statistical analyses were conducted using GraphPad Prism Version v10.0.

interleukin 11 (IL-11) = test: IL-11 ELISA in deep bronchial brushings (DBB); settings: for IL-11 in DBB, Δ from baseline, median (IQR): Day 14 minus screening
From the text: (§2) Bronchoscopists were instructed to obtain a total of 6 brushings from 3 of the basilar bronchial segments of the right lower lobe: the anterior basilar segment, the lateral basilar segment, and the posterior basilar segment. With the bronchoscope proximal to or within the orifice of the appropriate basilar segment, the brush sheath was to be passed out 5 cm beyond the subsegment orifice, and then the brush was fully extended an additional 1 cm for a total of 6 cm beyond the orifice of the subsegmental bronchus. At the desired depth, the sheath was to be gently pulled back and forward for 15 strokes to brush the small airways. The brushing process was repeated using any combination of the 3 basilar segments described above, at the discretion of the bronchoscopist, for a total of 6 six separate brush samples.
(§3) Protein isolation and preparation of DBB samples for ELISAs were performed as previously described[47] according to manufacturer’s instructions for COL1A1 (#ab210966, abcam), CXCL7 (#LS-F4967-1, LS Bio), GAL7 (#DY1339, R&D Systems), IL-11 (#DY218, R&D Systems), and TSLP (#DY1398, R&D Systems).
as §1

galectin-7 (GAL-7) = test: GAL7 ELISA in deep bronchial brushings (DBB); settings: for GAL7 in DBB, Δ from baseline, median (IQR): Day 14 minus screening
From the text: as §2, §3, §1

[2] = tested on: chemokine (C-X-C motif) ligand 7 (CXCL7); test: CXCL7 ELISA in deep bronchial brushings (DBB); settings: for CXCL7 in DBB, Δ from baseline, median (IQR): Day 14 minus screening, N = 8; for CXCL7 in DBB, median difference vs placebo (Hodges-Lehmann): N = 8 vs pooled placebo N = 6
From the text: as §2, §3, §1

participants with IPF = tested on: participants with IPF
Protocol: This was a Phase 1b, randomized, double-blind, placebo-controlled, dose escalation study conducted at 6 sites in the United States, United Kingdom, Germany, and Australia (ClinicalTrials.gov: NCT05954988).
The full study protocol and statistical analysis plan are provided as Supplementary Notes 1 and 2, respectively. The completed CONSORT checklist for reporting of this study is provided as Supplementary Note 3.
Randomization was performed by interactive response system. Participants, study staff, and sponsor personnel were blinded to treatment assignment throughout the study.
Safety and tolerability assessments were performed through treatment and follow-up and included evaluation of TEAEs, concomitant medications, physical examinations, vital signs, 12-lead ECGs, clinical laboratory assessments, spirometry, and cough symptoms using the validated LCQ[22] and a cough VAS. Spirometry was performed according to American Thoracic Society (ATS) / European Respiratory Society (ERS) Task Force guidelines[46] at all clinic visits, with assessments conducted both pre-and post-dose on study drug dosing days. Study staff monitored participants’ self-administration of the study drug (the morning dose) during on-site visits, and symptoms were monitored for at least 1h.
The primary endpoint was the incidence of TEAEs reported from Day 1 through follow-up. TEAEs were coded using MedDRA (Version 26.1) and graded using the National Cancer Institute Common Terminology for Adverse Events (CTCAE) Version 5. Safety analyses included all participants who received the study drug. […] Placebo participants in each cohort were pooled for safety and biomarker analyses. No secondary endpoints were specified.

[3] = 5 mg/day (2.5 mg BID) inhaled, 14 days, IPF, N = 9
[4] = 10 mg/day (5 mg BID) inhaled, 14 days, IPF, N = 9

CC(C)[C@H](NC(=O)[C@@H](NC(=O)[C@H](Cc1ccccc1)NC(=O)[C@@H](NC(=O)[C@@H](NC(=O)[C@@H](N)Cc1ccccc1)[C@@H](C)O)[C@@H](C)O)[C@@H](C)O)C(=O)N[C@H](C(=O)O)[C@@H](C)O [LTI-03] (H-FTTFTVT-OH; N-terminus and C-terminus assumed)
%p-AKT in PBMCs, Cliff's delta vs placebo ([1]; 5 mg/day): −0.33 | %p-AKT in PBMCs, Cliff's delta vs placebo ([1]; 10 mg/day): −0.13 | phosphorylated (p) AKT over total AKT levels in PBMCs ([1]; 5 and 10 mg/day vs placebo, 14 days): did not change | IL-11 in DBB, Δ from baseline, median (IQR) (interleukin 11 (IL-11); 5 mg/day, N = 8): −11.037 pg/mg protein | IL-11 in DBB, median difference vs placebo (Hodges-Lehmann) (interleukin 11 (IL-11); 5 mg/day, N = 8 vs pooled placebo N = 6, one-tailed Mann-Whitney p = 0.0406): −21.71 pg/mg protein | IL-11 in DBB, Δ from baseline, median (IQR) (interleukin 11 (IL-11); 10 mg/day, N = 9): −6.528 pg/mg protein | IL-11 in DBB, median difference vs placebo (Hodges-Lehmann) (interleukin 11 (IL-11); 10 mg/day, N = 9 vs pooled placebo N = 6, one-tailed Mann-Whitney p = 0.044): −19.15 pg/mg protein | GAL7 in DBB, Δ from baseline, median (IQR) (galectin-7 (GAL-7); 5 mg/day, N = 8): 250.8575 pg/mg protein | GAL7 in DBB, median difference vs placebo (Hodges-Lehmann) (galectin-7 (GAL-7); 5 mg/day, N = 8 vs pooled placebo N = 6, one-tailed Mann-Whitney p = 0.0709): −4730 pg/mg protein | GAL7 in DBB, Δ from baseline, median (IQR) (galectin-7 (GAL-7); 10 mg/day, N = 9): −726.395 pg/mg protein | GAL7 in DBB, median difference vs placebo (Hodges-Lehmann) (galectin-7 (GAL-7); 10 mg/day, N = 9 vs pooled placebo N = 6, one-tailed Mann-Whitney p = 0.0332): −6048 pg/mg protein | CXCL7 in DBB, Δ from baseline, median (IQR) ([2]; 5 mg/day): −100.2 ng/mg protein | CXCL7 in DBB, median difference vs placebo (Hodges-Lehmann) ([2]; 5 mg/day, one-tailed Mann-Whitney p = 0.5): 8.265 ng/mg protein | CXCL7 in DBB, Δ from baseline, median (IQR) ([2]; 10 mg/day): −1276.23 ng/mg protein | CXCL7 in DBB, median difference vs placebo (Hodges-Lehmann) ([2]; 10 mg/day, one-tailed Mann-Whitney p = 0.0248): −1262 ng/mg protein | TEAE: Back pain (participants with IPF; [3]): 1 (11.1) n (%) | TEAE: Body temperature increased (participants with IPF; [3]): 1 (11.1) n (%) | TEAE: COVID-19 (participants with IPF; [3]): 1 (11.1) n (%) | TEAE: Chest discomfort (participants with IPF; [3]): 1 (11.1) n (%) | TEAE: Dysgeusia (participants with IPF; [3]): 1 (11.1) n (%) | TEAE: Dyspnea, exertional (participants with IPF; [3]): 1 (11.1) n (%) | TEAE: Fatigue (participants with IPF; [3]): 1 (11.1) n (%) | TEAE: Hyperkaliemia (participants with IPF; [3]): 1 (11.1) n (%) | TEAE: Ophthalmic migraine (participants with IPF; [3]): 1 (11.1) n (%) | TEAE: Rhinorrhea (participants with IPF; [3]): 1 (11.1) n (%) | TEAEs Grade 2 (participants with IPF; 5 mg/day (2.5 mg BID) inhaled, 14 days, IPF, N = 9, CTCAE v5): 1 (11.1) n (%) | Serious TEAEs (participants with IPF; [4]): 1 (11.1) n (%) | TEAE related to study drug: Dry Mouth (participants with IPF; [4]): 1 (11.1) n (%) | TEAE related to study drug: Hypoesthesia oral (participants with IPF; [4]): 1 (11.1) n (%) | TEAE related to study drug: Palpitations (participants with IPF; [4]): 1 (11.1) n (%) | TEAE related to study drug: Throat Irritation (participants with IPF; [4]): 1 (11.1) n (%) | TEAE: COVID-19 (participants with IPF; [4]): 0 n (%) | TEAE: Cold sweat (participants with IPF; [4]): 1 (11.1) n (%) | TEAE: Dry mouth (participants with IPF; [4]): 1 (11.1) n (%) | TEAE: Hypoesthesia oral (participants with IPF; [4]): 1 (11.1) n (%) | TEAE: Nasopharyngitis (participants with IPF; [4]): 1 (11.1) n (%) | TEAE: Palpitations (participants with IPF; [4]): 1 (11.1) n (%) | TEAE: Productive cough (participants with IPF; [4]): 1 (11.1) n (%) | TEAE: Rhinorrhea (participants with IPF; [4]): 1 (11.1) n (%) | TEAE: Throat irritation (participants with IPF; [4]): 1 (11.1) n (%) | TEAE: Vertigo (participants with IPF; [4]): 1 (11.1) n (%) | TEAE: Post procedural fever (participants with IPF; 10 mg/day (5 mg BID) inhaled, 14 days, IPF, N = 9, serious, Grade 2, unrelated): 1 (11.1) n (%) | participants with TEAE cough (participants with IPF; in vivo): 44% | TEAE: COVID-19 (participants with IPF; pooled 5 and 10 mg/day inhaled, 14 days, IPF, N = 18): 1 (5.6) n (%)
